Data published in ChEMBL document CHEMBL1149472, “Homobivalent quinazolinimines as novel nanomolar inhibitors of cholinesterases with dirigible selectivity toward butyrylcholinesterase” (J Med Chem, 2006).

Assays:
[1] = Selectivity for horse serum BChE over electric eel AChE
Butyrylcholinesterase = Butyrylcholinesterase (Equus caballus, UniProt Q9N1N9); test: Inhibition of horse serum BChE
Acetylcholinesterase = Acetylcholinesterase (Electrophorus electricus, UniProt O42275); test: Inhibition of electric eel AChE
[2] = read-out: -Log IC50 (converted)

Sequence of Butyrylcholinesterase (Q9N1N9 whole entry): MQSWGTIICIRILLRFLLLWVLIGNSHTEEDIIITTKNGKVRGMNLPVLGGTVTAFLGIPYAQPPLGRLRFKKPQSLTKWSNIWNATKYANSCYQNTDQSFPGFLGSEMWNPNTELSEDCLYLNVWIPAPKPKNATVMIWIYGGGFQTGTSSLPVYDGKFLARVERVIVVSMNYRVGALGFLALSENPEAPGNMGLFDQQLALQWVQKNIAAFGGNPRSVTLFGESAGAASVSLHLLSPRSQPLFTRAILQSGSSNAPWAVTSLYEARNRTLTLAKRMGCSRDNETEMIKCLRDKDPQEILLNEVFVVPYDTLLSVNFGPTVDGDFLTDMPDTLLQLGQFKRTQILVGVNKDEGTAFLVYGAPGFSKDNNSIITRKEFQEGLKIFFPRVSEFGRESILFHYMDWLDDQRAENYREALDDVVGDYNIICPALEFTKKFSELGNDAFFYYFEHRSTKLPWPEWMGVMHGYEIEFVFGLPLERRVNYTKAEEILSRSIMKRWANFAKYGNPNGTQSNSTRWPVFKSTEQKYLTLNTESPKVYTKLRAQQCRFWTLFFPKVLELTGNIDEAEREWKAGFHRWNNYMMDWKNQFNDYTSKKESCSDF
Sequence of Acetylcholinesterase (O42275 whole entry): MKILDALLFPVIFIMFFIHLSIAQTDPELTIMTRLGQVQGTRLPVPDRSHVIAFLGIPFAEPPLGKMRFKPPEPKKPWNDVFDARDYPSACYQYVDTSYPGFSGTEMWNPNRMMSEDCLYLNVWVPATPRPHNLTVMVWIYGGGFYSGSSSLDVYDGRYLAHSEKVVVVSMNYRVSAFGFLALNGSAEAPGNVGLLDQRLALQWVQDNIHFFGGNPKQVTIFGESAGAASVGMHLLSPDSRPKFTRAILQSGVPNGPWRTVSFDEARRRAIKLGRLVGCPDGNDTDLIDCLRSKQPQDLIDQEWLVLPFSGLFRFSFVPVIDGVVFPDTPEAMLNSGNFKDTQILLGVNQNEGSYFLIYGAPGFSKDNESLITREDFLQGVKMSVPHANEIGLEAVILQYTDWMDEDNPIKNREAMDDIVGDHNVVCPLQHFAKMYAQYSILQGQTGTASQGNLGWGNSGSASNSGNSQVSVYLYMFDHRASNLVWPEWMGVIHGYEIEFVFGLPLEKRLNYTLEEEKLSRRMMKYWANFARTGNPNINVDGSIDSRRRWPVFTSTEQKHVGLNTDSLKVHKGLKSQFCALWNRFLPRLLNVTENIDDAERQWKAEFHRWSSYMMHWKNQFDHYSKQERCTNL

| SMILES | Ratio IC50 [1] | IC50 (Butyrylcholinesterase; read-out: IC50) | IC50 (Acetylcholinesterase) | IC50 (Butyrylcholinesterase; [2]) |
| --- | --- | --- | --- | --- |
| CCCC/N=c1/c2ccc(Cl)cc2nc2n1CCC2 | 1.7 | 2300 nM |  |  |
| N=c1c2ccccc2nc2n1CCCCCC2 | 4.9 | 3000 nM | 14600 nM |  |
| c1ccc2/c(=N/CCCCCCCC/N=c3/c4ccccc4nc4n3CCCCCC4)n3c(nc2c1)CCCCCC3 | 189 | 76 nM | 14400 nM |  |
| c1ccc2/c(=N/CCCCCCC/N=c3\c4ccccc4nc4n3CCCC4)n3c(nc2c1)CCCC3 | 9 | 8.5 nM | 77 nM |  |
| Clc1ccc2/c(=N/CCCCCCC/N=c3\c4ccc(Cl)cc4nc4n3CCC4)n3c(nc2c1)CCC3 | 1 | 61 nM | 59 nM |  |
| c1ccc2/c(=N/CCCCCCCC/N=c3/c4ccccc4nc4n3CCCCC4)n3c(nc2c1)CCCCC3 | 98 | 13 nM | 1280 nM |  |
| c1ccc2/c(=N/CCCCCCC/N=c3\c4ccccc4nc4n3CCCCCC4)n3c(nc2c1)CCCCCC3 | 2.4 | 27 nM | 65 nM |  |
| c1ccc2/c(=N/CCCCCCC/N=c3\c4ccccc4nc4n3CCC4)n3c(nc2c1)CCC3 | 0.9 | 88 nM | 79 nM |  |
| N=c1c2ccccc2nc2n1CCC2 | 1.8 | 7200 nM | 13200 nM | 716 nM |
| c1ccc2/c(=N/CCCCCCCC/N=c3/c4ccccc4nc4n3CCC4)n3c(nc2c1)CCC3 | 12 | 4.8 nM | 58 nM |  |
| CC(=O)/N=c1/c2ccccc2nc2n1CCC2 | 0.6 | 204000 nM | 115000 nM | 428000 nM |
| c1ccc2/c(=N/CCCCCCCC/N=c3/c4ccccc4nc4n3CCCC4)n3c(nc2c1)CCCC3 | 4.9 | 7.6 nM | 37 nM |  |
| CCCC/N=c1/c2ccccc2nc2n1CCC2 | 1.7 | 5500 nM | 9500 nM |  |
| c1ccc2/c(=N/CCCCCCC/N=c3\c4ccccc4nc4n3CCCCC4)n3c(nc2c1)CCCCC3 | 1.6 | 24 nM | 40 nM |  |
| Clc1ccc2c(c1)N=C1CCCN1C2NCCCCCCCC/N=c1/c2ccc(Cl)cc2nc2n1CCC2 (stereo unspecified) | 1.1 | 45.4 nM | 50.2 nM |  |
